Activity calls are given as the source filed them.
Experiments:
[1] = inhibitors of intracellular T. cruzi replication, confirmation, NIH3T3 host cells, beta-gal luminescence (AID 2044); format: functional, cell-based;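 note: intracellular parasites grown in NIH/3T3 mouse fibroblasts as host cells; luminescent beta-galactosidase reporter signal from transgenic T. cruzi replicating inside host cells; inhibitors lower the luminescence signal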
[2] = growth suppression of PTEN-null colon cells, dose response, cell-based, HCT116 PTEN knockout (AID 1047); format: functional;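 note: HCT116 colon tumor cells with PTEN knocked out; cells exposed to compound for 60 hours before readout; potency for loss of cell viability measured by luminescence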
[3] = cytotoxicity toward NIH3T3 fibroblasts, dose response, counter-screen, cell-based, ATP luminescence, mouse fibroblasts (AID 2010); format: functional;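 note: cells exposed to compound for about 90 hours before reading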
[4] = growth suppression of beta-catenin-knockout colon cells, dose response, cell-based, HCT116, human colon tumor (AID 1045); format: functional;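 note: HCT116 colon tumor cells with beta catenin knocked out; cells exposed to compound for 60 hours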
Coagulation factor XII = target: T1, Coagulation factor XII (Homo sapiens, UniProt P00748); format: functional;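 note: activated factor XIIa alpha cleaving a fluorogenic AMC peptide substrate; inhibitor potency from loss of enzyme activity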
T1 sequence (P00748 whole entry): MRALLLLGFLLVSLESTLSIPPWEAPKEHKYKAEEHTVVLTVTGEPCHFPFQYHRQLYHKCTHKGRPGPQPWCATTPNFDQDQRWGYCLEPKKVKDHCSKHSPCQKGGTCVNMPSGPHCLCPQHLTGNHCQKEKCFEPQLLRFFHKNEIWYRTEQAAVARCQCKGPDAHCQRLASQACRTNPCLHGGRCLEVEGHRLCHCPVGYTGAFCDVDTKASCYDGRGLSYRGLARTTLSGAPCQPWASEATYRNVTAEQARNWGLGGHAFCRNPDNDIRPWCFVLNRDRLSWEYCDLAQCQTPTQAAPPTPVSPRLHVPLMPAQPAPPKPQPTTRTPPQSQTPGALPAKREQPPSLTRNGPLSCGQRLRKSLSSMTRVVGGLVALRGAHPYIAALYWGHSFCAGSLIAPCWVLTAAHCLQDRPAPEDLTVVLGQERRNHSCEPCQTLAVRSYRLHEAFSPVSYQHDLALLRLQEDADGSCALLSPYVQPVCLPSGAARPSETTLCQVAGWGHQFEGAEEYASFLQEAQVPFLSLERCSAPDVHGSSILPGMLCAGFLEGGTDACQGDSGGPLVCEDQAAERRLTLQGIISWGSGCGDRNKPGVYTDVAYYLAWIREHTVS

[5] = target: T2, Short transient receptor potential channel 4 (Mus musculus, UniProt Q9QUQ5); assay: mouse TRPC4 channel inhibitors, dose response, cell-based, HEK293 TRPC4/mu-opioid, Fluo-4 calcium (AID 434942); format: functional;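 note: potency of inhibitors blocking the TRPC4 calcium response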
T2 sequence (Q9QUQ5 whole entry): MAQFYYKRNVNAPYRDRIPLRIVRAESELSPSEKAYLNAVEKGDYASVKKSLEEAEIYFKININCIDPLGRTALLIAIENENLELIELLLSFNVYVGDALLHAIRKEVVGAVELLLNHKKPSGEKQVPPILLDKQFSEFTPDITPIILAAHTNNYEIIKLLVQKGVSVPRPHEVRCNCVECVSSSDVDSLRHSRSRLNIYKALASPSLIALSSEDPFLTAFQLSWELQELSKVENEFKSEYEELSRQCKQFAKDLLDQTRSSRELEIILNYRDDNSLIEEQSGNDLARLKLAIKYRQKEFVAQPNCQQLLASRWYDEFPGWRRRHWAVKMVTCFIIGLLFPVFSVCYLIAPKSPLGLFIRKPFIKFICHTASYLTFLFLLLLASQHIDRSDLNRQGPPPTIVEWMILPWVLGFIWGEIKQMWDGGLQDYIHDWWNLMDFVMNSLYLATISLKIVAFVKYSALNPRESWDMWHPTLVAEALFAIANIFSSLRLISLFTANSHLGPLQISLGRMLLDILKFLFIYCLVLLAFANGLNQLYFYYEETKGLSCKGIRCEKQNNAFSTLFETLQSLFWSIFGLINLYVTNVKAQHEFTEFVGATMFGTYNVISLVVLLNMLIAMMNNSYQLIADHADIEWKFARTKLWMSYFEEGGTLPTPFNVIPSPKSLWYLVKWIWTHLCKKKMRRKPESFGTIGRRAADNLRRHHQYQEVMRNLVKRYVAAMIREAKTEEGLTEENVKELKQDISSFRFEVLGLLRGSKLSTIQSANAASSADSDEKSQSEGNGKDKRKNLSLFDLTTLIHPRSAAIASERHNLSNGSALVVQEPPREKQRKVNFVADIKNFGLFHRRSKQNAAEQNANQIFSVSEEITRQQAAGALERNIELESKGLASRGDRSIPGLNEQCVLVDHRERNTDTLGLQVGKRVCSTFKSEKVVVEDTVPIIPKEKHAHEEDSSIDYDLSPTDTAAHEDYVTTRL

[6] = Luminescence Cell-Based Dose Confirmation HTS to Identify Inhibitors of Platelet Dense Granule Release. [Related pubchem assays: 1663 (Primary HTS), 1678 (Summary of Project)]; format: functional
[7] = target: Luciferin 4-monooxygenase (Photinus pyralis, UniProt P08659); assay: firefly luciferase enzyme inhibitors, dose response, biochemical, luminescence (AID 1891)
Large T antigen = Large T antigen (Simian virus 40, UniProt P03070); format: functional, Betapolyomavirus macacae;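 note: Confirmatory-stage PubChem screen for compounds that inhibit SV40 T antigen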
BJ [8] = assay: cells; format: functional, cell-based; settings: Homo sapiens
INS1 = assay: beta cell apoptosis inhibitors, cytokine rescue, dose response, luminescence, retest (AID 449756); format: functional, cell-based; settings: Rattus norvegicus;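 note: cell death triggered by IL-1 beta plus TNF-alpha plus IFN-gamma mixture; protective hits raise ATP signal compared with cytokine alone wells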
Nonstructural protein 1 = Nonstructural protein 1 (Influenza A virus, UniProt Q194T2); format: functional, Influenza A virus (A/California/07/2009(H1N1))
BJ [9] = assay: cytotoxicity toward BJ-TERT-LT-ST fibroblasts, dose response, cell-based, RAS-independent, luminescence (AID 1935); format: functional; settings: Homo sapiens;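 note: BJ fibroblasts immortalized with TERT plus LT and ST oncogenes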
[10] = Luminescence-based dose response cell-based high throughput screening assay for cytotoxic compounds using the IEC-6 intestinal epithelial cell line. [Related pubchem assays: 1858 (Summary AID.), 1825 (Counterscreen.), 1907 (Confirmation screen.)]; format: functional
[11] = cytotoxicity toward DRD oncogenic fibroblasts, dose response, cell-based, non-viral oncogenic, luminescence (AID 1934); format: functional; settings: Homo sapiens
[12] = test system: Streptococcus sp. 'group A'; assay: growth inhibition of control SK(-) GAS strain, dose response, counter-screen for streptokinase expression inhibitor project, luminescence, kanamycin, BacTiterGlo, confirmation (AID 1900); format: functional, organism-based
BJ [13] = assay: cytotoxicity toward BJ-TERT fibroblasts, dose response, cell-based, RAS-independent, luminescence (AID 1933); format: functional; settings: Homo sapiens
Streptococcus = assay: Group A Streptococcus viability loss, dose response, counter-screen for streptokinase expression inhibitor project, luminescence, BacTiterGlo (AID 1915); format: functional, organism-based;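 note: potency for reduction of bacterial viability or growth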
[14] = cytotoxicity in HEK-293T cells, dose response, cytotoxicity control for TCR NF-kB inhibitor project, luminescence, T-cell screen hits (AID 489026); format: functional, cell-based;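 note: cells exposed to compound about 14 hours before the viability readout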
Protein RecA = target: T3, Protein RecA (Mycobacterium tuberculosis, UniProt P9WHJ3); assay: Fluorescence Cell-Free Homogeneous Dose Retest to Identify Inhibitors of RecA-Intein Splicing Activity. [Related pubchem assays (depositor defined):AID2097, AID2223, AID489010, AID492950]; format: functional
T3 sequence (P9WHJ3 whole entry): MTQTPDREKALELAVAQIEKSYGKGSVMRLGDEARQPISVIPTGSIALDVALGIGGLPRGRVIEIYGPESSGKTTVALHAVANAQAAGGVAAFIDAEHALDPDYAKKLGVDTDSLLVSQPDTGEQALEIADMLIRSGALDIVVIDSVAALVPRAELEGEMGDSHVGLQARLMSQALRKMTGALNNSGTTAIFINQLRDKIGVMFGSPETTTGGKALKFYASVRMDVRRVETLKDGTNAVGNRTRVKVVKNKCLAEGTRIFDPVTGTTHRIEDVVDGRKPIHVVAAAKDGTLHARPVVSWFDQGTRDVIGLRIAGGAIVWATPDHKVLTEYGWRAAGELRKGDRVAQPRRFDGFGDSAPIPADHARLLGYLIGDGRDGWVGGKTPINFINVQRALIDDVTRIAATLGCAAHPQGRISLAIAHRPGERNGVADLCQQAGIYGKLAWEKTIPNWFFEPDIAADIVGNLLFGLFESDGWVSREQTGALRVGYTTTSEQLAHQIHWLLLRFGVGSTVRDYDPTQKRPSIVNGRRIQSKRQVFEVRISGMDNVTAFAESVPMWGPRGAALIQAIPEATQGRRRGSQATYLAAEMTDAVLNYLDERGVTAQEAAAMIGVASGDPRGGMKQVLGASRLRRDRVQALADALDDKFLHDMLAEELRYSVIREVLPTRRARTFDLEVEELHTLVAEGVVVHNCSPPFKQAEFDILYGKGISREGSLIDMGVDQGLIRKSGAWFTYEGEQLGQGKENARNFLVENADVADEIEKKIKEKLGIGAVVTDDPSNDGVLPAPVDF

[15] = THP-1 cell cytotoxicity, dose response, cytotoxicity control for Vif-APOBEC3G degradation inhibitor project, THP-1 cells (AID 1117359); format: functional; settings: Human immunodeficiency virus 1, THP-1
[16] = target: T4, Replicative DNA helicase DnaB (Mycobacterium tuberculosis, UniProt P9WMR3); assay: DnaB intein splicing inhibitors, dose response, biochemical, cell-free fluorescence (AID 449749); format: functional
T4 sequence (P9WMR3 whole entry): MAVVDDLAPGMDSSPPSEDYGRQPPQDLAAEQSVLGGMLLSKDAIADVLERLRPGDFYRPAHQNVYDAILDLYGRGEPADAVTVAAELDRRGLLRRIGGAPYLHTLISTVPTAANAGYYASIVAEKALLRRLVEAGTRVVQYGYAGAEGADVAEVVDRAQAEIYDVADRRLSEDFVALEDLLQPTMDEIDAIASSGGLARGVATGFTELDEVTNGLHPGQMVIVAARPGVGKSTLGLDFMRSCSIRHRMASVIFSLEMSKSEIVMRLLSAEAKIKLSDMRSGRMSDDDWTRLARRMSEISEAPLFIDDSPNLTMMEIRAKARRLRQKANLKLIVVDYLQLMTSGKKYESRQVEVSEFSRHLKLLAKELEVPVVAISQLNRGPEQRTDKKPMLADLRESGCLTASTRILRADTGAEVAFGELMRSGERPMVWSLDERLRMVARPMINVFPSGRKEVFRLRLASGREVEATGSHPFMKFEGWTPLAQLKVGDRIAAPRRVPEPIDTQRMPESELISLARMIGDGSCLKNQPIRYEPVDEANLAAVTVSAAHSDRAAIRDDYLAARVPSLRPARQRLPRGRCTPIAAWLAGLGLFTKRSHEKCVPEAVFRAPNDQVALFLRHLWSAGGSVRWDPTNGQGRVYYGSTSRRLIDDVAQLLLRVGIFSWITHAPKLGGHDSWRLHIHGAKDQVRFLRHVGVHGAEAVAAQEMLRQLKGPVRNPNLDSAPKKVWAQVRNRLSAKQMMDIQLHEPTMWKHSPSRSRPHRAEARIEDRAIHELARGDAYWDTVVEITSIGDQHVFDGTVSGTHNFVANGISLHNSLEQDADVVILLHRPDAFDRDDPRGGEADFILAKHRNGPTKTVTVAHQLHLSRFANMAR

[17] = THP-1 cell cytotoxicity, dose response, cytotoxicity control for non-replicating M. tuberculosis project (AID 489025); format: functional
[18] = Vero E6 cell cytotoxicity, dose response, cytotoxicity control for non-replicating M. tuberculosis project, secondary assay (AID 492998); format: functional, VeroE6; settings: Vero C1008
cells = format: functional

Large T antigen, sequence (P03070 whole entry): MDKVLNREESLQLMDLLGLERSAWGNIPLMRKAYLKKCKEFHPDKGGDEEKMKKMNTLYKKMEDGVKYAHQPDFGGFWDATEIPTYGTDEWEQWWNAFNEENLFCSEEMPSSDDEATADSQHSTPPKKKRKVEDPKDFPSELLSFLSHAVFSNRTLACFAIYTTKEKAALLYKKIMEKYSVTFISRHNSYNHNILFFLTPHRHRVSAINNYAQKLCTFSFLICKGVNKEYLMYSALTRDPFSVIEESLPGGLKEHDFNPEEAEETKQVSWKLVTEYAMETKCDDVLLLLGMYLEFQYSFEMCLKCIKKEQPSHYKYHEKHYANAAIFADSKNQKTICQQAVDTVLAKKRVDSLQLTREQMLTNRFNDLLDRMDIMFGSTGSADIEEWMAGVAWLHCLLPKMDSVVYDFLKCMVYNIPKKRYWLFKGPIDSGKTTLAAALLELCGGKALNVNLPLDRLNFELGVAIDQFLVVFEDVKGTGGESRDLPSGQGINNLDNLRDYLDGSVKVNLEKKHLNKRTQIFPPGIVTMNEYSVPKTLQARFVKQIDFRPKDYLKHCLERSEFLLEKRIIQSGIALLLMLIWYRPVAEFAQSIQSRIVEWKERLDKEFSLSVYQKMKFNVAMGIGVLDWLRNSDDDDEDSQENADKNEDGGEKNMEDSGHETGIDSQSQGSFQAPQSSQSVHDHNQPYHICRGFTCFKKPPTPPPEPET
Nonstructural protein 1, sequence (Q194T2 whole entry): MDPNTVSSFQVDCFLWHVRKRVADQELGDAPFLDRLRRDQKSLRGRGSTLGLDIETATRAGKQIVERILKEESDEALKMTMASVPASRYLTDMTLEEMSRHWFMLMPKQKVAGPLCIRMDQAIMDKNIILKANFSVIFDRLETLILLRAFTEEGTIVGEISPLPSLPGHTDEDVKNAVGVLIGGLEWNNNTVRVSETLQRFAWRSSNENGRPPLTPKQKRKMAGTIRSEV
Luciferin 4-monooxygenase, sequence (P08659 whole entry): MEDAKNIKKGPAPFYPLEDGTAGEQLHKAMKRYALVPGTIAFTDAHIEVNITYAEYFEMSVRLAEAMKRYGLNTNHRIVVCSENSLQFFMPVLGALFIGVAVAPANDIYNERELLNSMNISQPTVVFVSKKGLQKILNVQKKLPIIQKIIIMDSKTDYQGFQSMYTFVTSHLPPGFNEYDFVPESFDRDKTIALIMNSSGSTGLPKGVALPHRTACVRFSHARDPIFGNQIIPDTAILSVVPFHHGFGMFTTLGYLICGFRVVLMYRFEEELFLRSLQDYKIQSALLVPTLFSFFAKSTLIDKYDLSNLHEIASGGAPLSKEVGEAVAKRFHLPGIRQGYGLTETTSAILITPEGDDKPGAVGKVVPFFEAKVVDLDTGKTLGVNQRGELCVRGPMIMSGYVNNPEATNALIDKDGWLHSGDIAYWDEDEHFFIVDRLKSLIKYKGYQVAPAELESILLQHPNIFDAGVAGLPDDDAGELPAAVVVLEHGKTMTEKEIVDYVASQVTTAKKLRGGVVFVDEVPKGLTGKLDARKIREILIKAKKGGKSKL

Structure (SMILES): OCCCCNCc1ccc(OCc2ccc(Cl)cc2Cl)cc1
- EC50 [1]: 1.68 µM (active)
- EC50 [2]: 10.9 µM (active)
- EC50 [3]: 17.3 µM (active)
- EC50 [4]: 9.83 µM (active)

Structure (SMILES): COC(=O)CSc1nnc(-c2sc3cc(OC)ccc3c2Cl)n1C
- IC50 (Coagulation factor XII): > 50 µM (inactive)
- EC50 [5]: 0.531 µM (active)

Structure (SMILES): COc1ccc(N2C(=O)C(Cl)=C(N3CCCC(C)C3)C2=O)cc1 (stereo not drawn)
- IC50 (Coagulation factor XII): > 50 µM (inactive)

Structure (SMILES): CCOc1cc(/C=N/NC(=O)N/N=C/c2ccc(O)c(OCC)c2)ccc1O
- EC50 [6]: 11.8 µM (active)
- EC50 [7]: 1.2 µM (active)
- IC50 (Large T antigen): 4.27 µM (active)

Structure (SMILES): C/C(=N\NC(=O)c1ccc(Cl)c(Cl)c1)c1ccccn1
- EC50 (BJ [8]): 1.37 µM (active)
- EC50 [1]: 0.125 µM (active)
- AC50 (INS1): 0.278 µM (active)
- EC50 [3]: 0.656 µM (active)
- IC50 (Nonstructural protein 1): 3.03 µM (active)
- EC50 (BJ [9]): 0.674 µM (inconclusive)
- IC50 [10]: 0.563 µM (active)
- EC50 [11]: 1.01 µM (active)
- EC50 [12]: 0.099 µM (active)
- EC50 (BJ [13]): 0.38 µM (inconclusive)
- EC50 (Streptococcus): 1.84 µM (active)
- IC50 [14]: > 80 µM (inactive)

Structure (SMILES): CC1=C/C(=N/c2c(C)n(C)n(-c3ccccc3)c2=O)C=CC1=O
- EC50 (Protein RecA): 14 µM (active)
- CC50 [15]: > 40 µM (active)
- AC50 [16]: 29.5 µM (active)

Structure (SMILES): Cc1nn(-c2cccc(Cl)c2)c(O)c1/C=N/n1c(C)nc2ccccc2c1=O
- CC50 [17]: 28.7 µM (active)
- CC50 [18]: > 20 µM (active)
- IC50 (cells): 45.1 µM (active)

Reference: ChEMBL document CHEMBL1201862, “PubChem BioAssay data set” (2004)
